Reference: ChEMBL document CHEMBL4507278 (2021)

How the values were obtained:
[1] = tested on: Tyrosine-protein kinase ABL1 (Homo sapiens), P00519 [Y253F]; settings: Compound concentration 1000.0 nM
[2] = biological target: BMP-2-inducible protein kinase (Homo sapiens) (UniProt Q9NSY1); settings: Compound concentration 1000.0 nM
[3] = biological target: Bone morphogenetic protein receptor type-1A (Homo sapiens) (UniProt P36894); settings: Compound concentration 1000.0 nM
[4] = biological target: Serine/threonine-protein kinase BRSK1 (Homo sapiens) (UniProt Q8TDC3); settings: Compound concentration 1000.0 nM
[5] = biological target: Mitotic checkpoint serine/threonine-protein kinase BUB1 (Homo sapiens) (UniProt O43683); settings: Compound concentration 1000.0 nM
[6] = biological target: Calcium/calmodulin-dependent protein kinase type 1D (Homo sapiens) (UniProt Q8IU85); settings: Compound concentration 1000.0 nM
[7] = biological target: Calcium/calmodulin-dependent protein kinase type IV (Homo sapiens) (UniProt Q16566); settings: Compound concentration 1000.0 nM
[8] = biological target: Peripheral plasma membrane protein CASK (Homo sapiens) (UniProt O14936); settings: Compound concentration 1000.0 nM
[9] = biological target: Cyclin-dependent kinase 7 (Homo sapiens) (UniProt P50613); settings: Compound concentration 1000.0 nM
[10] = biological target: Cyclin-dependent kinase 9 (Homo sapiens) (UniProt P50750); settings: Compound concentration 1000.0 nM
[11] = biological target: Serine/threonine-protein kinase Chk1 (Homo sapiens) (UniProt O14757); settings: Compound concentration 1000.0 nM
Chain of Serine/threonine-protein kinase Chk1 (Homo sapiens) (O14757 whole entry): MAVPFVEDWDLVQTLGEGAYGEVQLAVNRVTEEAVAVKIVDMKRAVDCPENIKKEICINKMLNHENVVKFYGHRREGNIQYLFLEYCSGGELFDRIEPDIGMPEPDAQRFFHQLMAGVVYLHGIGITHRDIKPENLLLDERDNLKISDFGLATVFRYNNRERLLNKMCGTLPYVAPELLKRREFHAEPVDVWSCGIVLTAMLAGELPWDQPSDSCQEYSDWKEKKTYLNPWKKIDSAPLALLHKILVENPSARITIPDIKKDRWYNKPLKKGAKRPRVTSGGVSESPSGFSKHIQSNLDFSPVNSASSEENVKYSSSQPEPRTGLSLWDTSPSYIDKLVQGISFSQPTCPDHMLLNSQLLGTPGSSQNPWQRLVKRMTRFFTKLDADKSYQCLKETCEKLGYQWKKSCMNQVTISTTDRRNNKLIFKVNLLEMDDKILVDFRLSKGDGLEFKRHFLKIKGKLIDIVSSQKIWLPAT

[12] = biological target: Serine/threonine-protein kinase Chk2 (Homo sapiens) (UniProt O96017); settings: Compound concentration 1000.0 nM
[13] = biological target: Dual specificity protein kinase CLK2 (Homo sapiens) (UniProt P49760); settings: Compound concentration 1000.0 nM
Chain of Dual specificity protein kinase CLK2 (Homo sapiens) (P49760 whole entry, looked up): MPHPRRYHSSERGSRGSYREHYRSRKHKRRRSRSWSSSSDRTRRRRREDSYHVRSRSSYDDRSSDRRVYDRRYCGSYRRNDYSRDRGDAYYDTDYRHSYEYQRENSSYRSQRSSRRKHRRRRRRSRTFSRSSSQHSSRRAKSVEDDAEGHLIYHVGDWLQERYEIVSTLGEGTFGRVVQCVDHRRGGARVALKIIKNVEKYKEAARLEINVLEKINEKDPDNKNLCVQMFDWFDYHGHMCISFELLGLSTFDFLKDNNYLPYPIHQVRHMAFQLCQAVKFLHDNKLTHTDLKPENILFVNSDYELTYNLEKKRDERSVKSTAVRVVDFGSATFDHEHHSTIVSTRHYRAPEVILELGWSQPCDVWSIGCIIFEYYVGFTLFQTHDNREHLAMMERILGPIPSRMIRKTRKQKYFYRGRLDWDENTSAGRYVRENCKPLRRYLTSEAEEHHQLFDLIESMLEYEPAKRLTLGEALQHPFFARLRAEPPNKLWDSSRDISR

[14] = biological target: Macrophage colony-stimulating factor 1 receptor (Homo sapiens) (UniProt P07333); settings: Compound concentration 1000.0 nM
[15] = biological target: Casein kinase II subunit alpha (Homo sapiens) (UniProt P68400); settings: Compound concentration 1000.0 nM
[16] = biological target: Serine/threonine-protein kinase DCLK2 (Homo sapiens) (UniProt Q8N568); settings: Compound concentration 1000.0 nM
Chain of Serine/threonine-protein kinase DCLK2 (Homo sapiens) (Q8N568 whole entry): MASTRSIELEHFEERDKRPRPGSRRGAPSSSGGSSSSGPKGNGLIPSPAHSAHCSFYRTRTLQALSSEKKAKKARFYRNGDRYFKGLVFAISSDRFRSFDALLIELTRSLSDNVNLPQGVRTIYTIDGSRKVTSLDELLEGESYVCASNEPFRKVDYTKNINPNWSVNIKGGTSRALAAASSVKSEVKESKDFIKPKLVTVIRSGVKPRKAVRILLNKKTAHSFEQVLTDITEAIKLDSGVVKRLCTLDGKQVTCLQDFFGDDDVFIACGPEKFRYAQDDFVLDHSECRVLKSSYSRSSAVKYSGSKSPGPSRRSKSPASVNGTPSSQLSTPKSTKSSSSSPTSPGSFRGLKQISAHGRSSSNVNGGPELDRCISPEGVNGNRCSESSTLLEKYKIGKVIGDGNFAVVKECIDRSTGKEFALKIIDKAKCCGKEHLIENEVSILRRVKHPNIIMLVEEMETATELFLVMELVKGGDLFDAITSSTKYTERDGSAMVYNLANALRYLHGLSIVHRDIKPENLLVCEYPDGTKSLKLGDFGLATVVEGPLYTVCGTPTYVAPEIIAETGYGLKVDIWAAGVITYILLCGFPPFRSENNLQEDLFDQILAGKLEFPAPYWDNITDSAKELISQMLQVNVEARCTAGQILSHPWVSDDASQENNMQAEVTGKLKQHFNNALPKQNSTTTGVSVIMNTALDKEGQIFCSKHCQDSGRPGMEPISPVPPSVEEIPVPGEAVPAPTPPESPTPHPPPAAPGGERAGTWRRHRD

[17] = biological target: Ephrin type-A receptor 2 (Homo sapiens) (UniProt P29317); settings: Compound concentration 1000.0 nM
[18] = biological target: Ephrin type-B receptor 3 (Homo sapiens) (UniProt P54753); settings: Compound concentration 1000.0 nM
[19] = biological target: Receptor tyrosine-protein kinase erbB-3 (Homo sapiens) (UniProt P21860); settings: Compound concentration 1000.0 nM
[20] = tested on: Receptor-type tyrosine-protein kinase FLT3 (Homo sapiens), P36888 [D835Y]; settings: Compound concentration 1000.0 nM
[21] = biological target: Tyrosine-protein kinase FRK (Homo sapiens) (UniProt P42685); settings: Compound concentration 1000.0 nM
[22] = biological target: Interleukin-1 receptor-associated kinase 4 (Homo sapiens) (UniProt Q9NWZ3); settings: Compound concentration 1000.0 nM
[23] = tested on: Mast/stem cell growth factor receptor Kit (Homo sapiens), P10721 [V559D,T670I]; settings: Compound concentration 1000.0 nM
[24] = tested on: Leucine-rich repeat serine/threonine-protein kinase 2 (Homo sapiens), Q5S007 [G2019S]; settings: Compound concentration 1000.0 nM
[25] = biological target: MAP/microtubule affinity-regulating kinase 3 (Homo sapiens) (UniProt P27448); settings: Compound concentration 1000.0 nM
[26] = biological target: Dual specificity mitogen-activated protein kinase kinase 1 (Homo sapiens) (UniProt Q02750); settings: Compound concentration 1000.0 nM
[27] = biological target: Misshapen-like kinase 1 (Homo sapiens) (UniProt Q8N4C8); settings: Compound concentration 1000.0 nM
[28] = biological target: Phosphorylase b kinase regulatory subunit alpha, liver isoform (Homo sapiens) (UniProt P46019); settings: Compound concentration 1000.0 nM
[29] = biological target: Phosphatidylinositol 4,5-bisphosphate 3-kinase catalytic subunit beta isoform (Homo sapiens) (UniProt P42338); settings: Compound concentration 1000.0 nM
Chain of Phosphatidylinositol 4,5-bisphosphate 3-kinase catalytic subunit beta isoform (Homo sapiens) (P42338 whole entry, looked up, canonical isoform): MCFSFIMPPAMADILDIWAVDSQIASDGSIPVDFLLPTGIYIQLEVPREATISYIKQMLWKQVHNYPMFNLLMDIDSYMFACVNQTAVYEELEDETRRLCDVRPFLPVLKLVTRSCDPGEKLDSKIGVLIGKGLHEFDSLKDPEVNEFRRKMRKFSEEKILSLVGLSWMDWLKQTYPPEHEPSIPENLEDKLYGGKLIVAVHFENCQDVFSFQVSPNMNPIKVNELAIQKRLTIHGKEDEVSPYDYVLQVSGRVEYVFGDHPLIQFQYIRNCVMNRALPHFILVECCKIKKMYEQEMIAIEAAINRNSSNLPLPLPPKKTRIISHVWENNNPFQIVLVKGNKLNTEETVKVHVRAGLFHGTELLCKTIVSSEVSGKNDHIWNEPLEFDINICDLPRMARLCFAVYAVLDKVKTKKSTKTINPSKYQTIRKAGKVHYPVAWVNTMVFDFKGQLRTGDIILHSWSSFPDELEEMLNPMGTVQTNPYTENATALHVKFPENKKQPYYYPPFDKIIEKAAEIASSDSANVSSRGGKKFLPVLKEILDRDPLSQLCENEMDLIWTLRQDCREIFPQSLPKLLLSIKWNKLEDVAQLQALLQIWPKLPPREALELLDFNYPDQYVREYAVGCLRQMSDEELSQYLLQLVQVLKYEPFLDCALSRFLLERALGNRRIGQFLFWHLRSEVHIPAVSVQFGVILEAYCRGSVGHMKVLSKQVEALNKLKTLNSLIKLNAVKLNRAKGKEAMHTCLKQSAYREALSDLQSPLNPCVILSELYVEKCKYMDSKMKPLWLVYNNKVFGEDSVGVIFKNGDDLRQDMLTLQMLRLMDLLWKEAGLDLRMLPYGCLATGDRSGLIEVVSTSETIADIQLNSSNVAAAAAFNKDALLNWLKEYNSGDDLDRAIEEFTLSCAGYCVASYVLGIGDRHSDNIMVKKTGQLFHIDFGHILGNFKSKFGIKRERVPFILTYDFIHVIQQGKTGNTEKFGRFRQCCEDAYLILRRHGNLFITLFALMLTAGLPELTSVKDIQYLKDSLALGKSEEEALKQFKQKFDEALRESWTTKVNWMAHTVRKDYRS

[30] = biological target: Serine/threonine-protein kinase pim-2 (Homo sapiens) (UniProt Q9P1W9); settings: Compound concentration 1000.0 nM
Chain of Serine/threonine-protein kinase pim-2 (Homo sapiens) (Q9P1W9 whole entry, looked up): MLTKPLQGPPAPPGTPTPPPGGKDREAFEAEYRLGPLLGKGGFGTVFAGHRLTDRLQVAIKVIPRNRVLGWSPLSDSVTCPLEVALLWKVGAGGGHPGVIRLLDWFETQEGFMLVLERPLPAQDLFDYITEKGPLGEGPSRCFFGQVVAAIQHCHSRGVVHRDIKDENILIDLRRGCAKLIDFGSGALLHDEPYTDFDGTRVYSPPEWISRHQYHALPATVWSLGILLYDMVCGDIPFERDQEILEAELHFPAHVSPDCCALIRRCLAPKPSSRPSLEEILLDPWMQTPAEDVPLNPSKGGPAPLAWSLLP

[31] = biological target: Phosphatidylinositol 5-phosphate 4-kinase type-2 beta (Homo sapiens) (UniProt P78356); settings: Compound concentration 1000.0 nM
[32] = biological target: Serine/threonine-protein kinase PknB (Mycobacterium tuberculosis) (UniProt P9WI81); settings: Compound concentration 1000.0 nM
[33] = biological target: Serine/threonine-protein kinase PLK3 (Homo sapiens) (UniProt Q9H4B4); settings: Compound concentration 1000.0 nM
[34] = biological target: Serine/threonine-protein kinase D2 (Homo sapiens) (UniProt Q9BZL6); settings: Compound concentration 1000.0 nM
[35] = biological target: Serine/threonine-protein kinase D3 (Homo sapiens) (UniProt O94806); settings: Compound concentration 1000.0 nM
[36] = biological target: cAMP-dependent protein kinase catalytic subunit PRKX (Homo sapiens) (UniProt P51817); settings: Compound concentration 1000.0 nM
[37] = biological target: Serine/threonine-protein kinase TBK1 (Homo sapiens) (UniProt Q9UHD2); settings: Compound concentration 1000.0 nM
[38] = biological target: TGF-beta receptor type-2 (Homo sapiens) (UniProt P37173); settings: Compound concentration 1000.0 nM
[39] = biological target: Testis-specific serine/threonine-protein kinase 1 (Homo sapiens) (UniProt Q9BXA7); settings: Compound concentration 1000.0 nM
[40] = biological target: Non-receptor tyrosine-protein kinase TYK2 (Homo sapiens) (UniProt P29597); settings: Compound concentration 1000.0 nM
[41] = biological target: Serine/threonine-protein kinase WNK1 (Homo sapiens) (UniProt Q9H4A3); settings: Compound concentration 1000.0 nM
[42] = biological target: 5-hydroxytryptamine receptor 2A (Homo sapiens) (UniProt P28223); settings: Compound concentration 10.0 uM
[43] = biological target: 5-hydroxytryptamine receptor 7 (Homo sapiens) (UniProt P34969); settings: Compound concentration 10.0 uM
[44] = biological target: Histamine H1 receptor (Homo sapiens) (UniProt P35367); settings: Compound concentration 10.0 uM
Chain of Histamine H1 receptor (Homo sapiens) (P35367 whole entry): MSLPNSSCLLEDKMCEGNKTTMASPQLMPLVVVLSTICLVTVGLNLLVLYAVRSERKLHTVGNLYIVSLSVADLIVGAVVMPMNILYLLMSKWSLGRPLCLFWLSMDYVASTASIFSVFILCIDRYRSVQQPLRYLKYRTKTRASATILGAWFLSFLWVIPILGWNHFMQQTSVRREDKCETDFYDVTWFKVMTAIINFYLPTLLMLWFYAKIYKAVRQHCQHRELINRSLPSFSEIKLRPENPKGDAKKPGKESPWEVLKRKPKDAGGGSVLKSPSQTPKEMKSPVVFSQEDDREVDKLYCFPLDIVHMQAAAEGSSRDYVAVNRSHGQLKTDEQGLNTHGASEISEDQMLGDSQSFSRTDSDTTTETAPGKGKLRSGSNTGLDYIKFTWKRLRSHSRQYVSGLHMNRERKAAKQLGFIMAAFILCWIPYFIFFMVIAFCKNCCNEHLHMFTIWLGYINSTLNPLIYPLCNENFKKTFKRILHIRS

[45] = biological target: Sigma non-opioid intracellular receptor 1 (Homo sapiens) (UniProt Q99720); settings: Compound concentration 10.0 uM
Chain of Sigma non-opioid intracellular receptor 1 (Homo sapiens) (Q99720 whole entry): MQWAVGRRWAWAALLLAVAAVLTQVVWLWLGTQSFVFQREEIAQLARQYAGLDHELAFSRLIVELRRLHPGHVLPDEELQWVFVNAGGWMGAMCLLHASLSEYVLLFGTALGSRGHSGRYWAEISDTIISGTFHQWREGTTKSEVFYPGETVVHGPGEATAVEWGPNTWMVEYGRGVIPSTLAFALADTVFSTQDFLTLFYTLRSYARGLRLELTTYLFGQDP

Chain of BMP-2-inducible protein kinase (Homo sapiens) (Q9NSY1 whole entry, looked up): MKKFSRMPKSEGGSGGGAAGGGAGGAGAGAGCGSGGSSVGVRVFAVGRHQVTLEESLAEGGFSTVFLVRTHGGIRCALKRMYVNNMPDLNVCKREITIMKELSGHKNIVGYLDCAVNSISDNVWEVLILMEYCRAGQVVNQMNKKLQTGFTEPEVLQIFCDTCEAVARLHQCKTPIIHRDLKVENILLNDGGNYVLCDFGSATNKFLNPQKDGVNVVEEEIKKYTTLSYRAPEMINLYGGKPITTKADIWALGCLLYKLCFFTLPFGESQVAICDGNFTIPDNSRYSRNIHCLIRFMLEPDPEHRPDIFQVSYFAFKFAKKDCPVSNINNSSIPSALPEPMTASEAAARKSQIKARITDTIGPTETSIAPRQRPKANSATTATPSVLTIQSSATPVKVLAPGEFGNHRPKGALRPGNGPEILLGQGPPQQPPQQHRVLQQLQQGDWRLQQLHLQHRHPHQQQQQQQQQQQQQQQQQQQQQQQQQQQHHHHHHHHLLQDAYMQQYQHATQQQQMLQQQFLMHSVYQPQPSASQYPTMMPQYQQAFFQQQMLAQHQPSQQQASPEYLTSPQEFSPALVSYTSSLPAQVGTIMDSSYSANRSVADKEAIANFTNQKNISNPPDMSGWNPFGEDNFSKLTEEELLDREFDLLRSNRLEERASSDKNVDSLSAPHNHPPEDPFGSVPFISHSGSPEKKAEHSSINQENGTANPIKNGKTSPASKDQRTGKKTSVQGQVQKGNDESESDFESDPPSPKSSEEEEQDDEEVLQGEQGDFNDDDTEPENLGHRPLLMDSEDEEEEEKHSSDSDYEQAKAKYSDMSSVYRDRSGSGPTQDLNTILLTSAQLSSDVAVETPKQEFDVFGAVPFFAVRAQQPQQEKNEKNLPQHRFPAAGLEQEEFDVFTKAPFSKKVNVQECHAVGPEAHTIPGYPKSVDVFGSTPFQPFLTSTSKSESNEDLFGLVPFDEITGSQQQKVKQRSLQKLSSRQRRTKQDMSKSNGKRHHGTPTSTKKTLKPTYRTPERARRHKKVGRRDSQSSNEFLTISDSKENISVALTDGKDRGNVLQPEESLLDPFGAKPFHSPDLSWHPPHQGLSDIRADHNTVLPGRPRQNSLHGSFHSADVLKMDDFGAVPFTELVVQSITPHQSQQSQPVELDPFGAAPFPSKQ

CS(=O)(=O)NCC[C@H](NC(=O)c1cncc2c1cnn2-c1ccc(F)cc1)c1ccnc(S(C)(=O)=O)c1 [BI 9307]
inactive: residual activity [1] 95% | residual activity [2] 92% | residual activity [3] 92% | residual activity [4] 99% | residual activity [5] 100% | residual activity [6] 98% | residual activity [7] 100% | residual activity [8] 100% | residual activity [9] 100% | residual activity [10] 100% | residual activity [11] 97% | residual activity [12] 77% | residual activity [13] 100% | residual activity [14] 100% | residual activity [15] 100% | residual activity [16] 100% | residual activity [17] 100% | residual activity [18] 100% | residual activity [19] 100% | residual activity [20] 97% | residual activity [21] 100% | residual activity [22] 100% | residual activity [23] 100% | residual activity [24] 92% | residual activity [25] 92% | residual activity [26] 100% | residual activity [27] 100% | residual activity [28] 100% | residual activity [29] 93% | residual activity [30] 86% | residual activity [31] 100% | residual activity [32] 93% | residual activity [33] 100% | residual activity [34] 94% | residual activity [35] 92% | residual activity [36] 100% | residual activity [37] 94% | residual activity [38] 96% | residual activity [39] 99% | residual activity [40] 100% | residual activity [41] 100% | inhibition [42] 11.8% | inhibition [43] 4.81% | inhibition [44] 12.5% | inhibition [45] 7.62%

CS(=O)(=O)c1cc(C2(NC(=O)c3cncc4c3cnn4-c3ccc(F)cc3)CC2)ccn1 [BI 639667]
inactive: residual activity [1] 91% | residual activity [2] 89% | residual activity [3] 100% | residual activity [4] 74% | residual activity [5] 85% | residual activity [6] 90% | residual activity [7] 100% | residual activity [8] 100% | residual activity [9] 90% | residual activity [10] 91% | residual activity [11] 100% | residual activity [12] 100% | residual activity [13] 100% | residual activity [14] 79% | residual activity [15] 64% | residual activity [16] 100% | residual activity [17] 100% | residual activity [18] 100% | residual activity [19] 100% | residual activity [20] 98% | residual activity [21] 58% | residual activity [22] 100% | residual activity [23] 84% | residual activity [24] 100% | residual activity [25] 100% | residual activity [26] 81% | residual activity [27] 100% | residual activity [28] 100% | residual activity [29] 100% | residual activity [30] 100% | residual activity [31] 100% | residual activity [32] 99% | residual activity [33] 68% | residual activity [34] 97% | residual activity [35] 97% | residual activity [36] 85% | residual activity [37] 94% | residual activity [38] 100% | residual activity [39] 63% | residual activity [40] 100% | residual activity [41] 100% | inhibition [42] 20.4% | inhibition [43] 10.5% | inhibition [44] 11.2% | inhibition [45] 26.4%
